Measured values reported in US12016884B2, “Adipose derived stem cell exosomes and uses thereof” (UNIVERSITY OF SOUTH FLORIDA, priority 2016, dated 2024).
Entries after “also recorded” stand apart in the source; their conditions may differ.

Tested on: human dermal fibroblast (HDF) cells
Test: ECIS (electric cell-substrate impedance sensing) wound healing assay
Assay type: cell-based
Conditions: Dynasore about 50 μM added to media with 20 μg exosomes (FIG. 9)
Method: ECIS assays: The ECIS or electric cell-substrate impedance sensing instrument (Applied Biophysics) recorded the impedance on electrically wounded hHDF to detect the migratory response. Briefly, 200 μl of cell suspension were seeded per well of 8W1E ECIS array (5×10^4 cells per well) coated with about 1% gelatin. After cells were confluent in the incubator, the ECIS chambers were mounted to the ECIS system. […] Arrays were then washed with medium under the microscope to remove any dead cells on the electrodes. Thereafter, the wound healing process was determined in real-time by measuring the recovery of electrical impedance, an indicator of the surrounding viable fibroblast cells migrating into the wounded area. […]
Briefly, HDF cells on the micro-electrods of the ECIS wells were killed with a high electrical voltage. Subsequently, the migration of viable cells onto the wounded microelectrodes was measured in real-time by electrical resistance in the presence of bFGF ([…]), about 10 μg/mL exosomes, and about 20 μg/mL exosome respectively. The percentage of recovery was calculated by the difference in the resistance of each time point and the resistance of the first time point after wounding divided by the resistance before the wounding. […]

Compound: O=C(N/N=C/c1ccc(O)c(O)c1)c1cc2ccccc2cc1O [Dynasore]
- effect on exosome-driven cell migration in ECIS: blocked the cell migratory effect of exosomes; also recorded: greatly attenuate cell migration; also recorded: inhibition of migration
